US7811816B2, “Isolated CD8 +T lymphocytes specifically cytotoxic for a disease causing target cell” (Ortho-McNeil Pharmaeutical, Inc., priority 2001, dated 2010)
Marks after values point to notes of the source that are not given here.

Key:
[1] = system: peptides loaded RMAS (K^b, D^b) cells; test: In vitro generation of IgE peptide specific CTLs, 51Cr release against peptide loaded RMAS cells; type: cell-based; conditions: naive mouse CD8 T cells, Drosophila APC with D^b, B7-1, ICAM-1; Day 9
Experimental: CD8^+ T cells were purified from lymph nodes of CBF1/J mice (FIGS. 2A, 2B and 2D) or from B6, interferon γ knock out mice (IFNγ^−/−) or perform (PF^−/−) knock out mice (FIG. 2C). The purified CD8 T cells were cultured with indicated IgE peptides presented by SC2 cells transfected with D^b MHC class I, B7-1 (CD80) and ICAM-1 (CD54) molecules. Low dose of recombinant IL-2 (20 units/ml) was added to the culture at Day 3 and every other day thereafter. On Day 9, CTL activity was measured against ^51Cr labeled RMAS cells loaded with or without indicated IgE peptides. In FIG. 2D, anti-D^b mAb (20 μg/ml) was added at the beginning of CTL assay.
(§1) CTL Assay: Epitope-bearing (target) cells are used as target cells in a ^51 Cr release assay. 5×10^6 target cells in RPMI medium containing 4% fetal calf serum, 1% HEPES buffer and 0.25% gentamycin are labeled at 37° C. for one hour with 0.1 mCi ^51Cr. Cells are washed four times and diluted to 10^5 cells/ml in RPMI with 10% fetal bovine serum (HyClone). In a 96-well microtiter plate, 100 μl effector CTLs and 100 μl peptide-loaded, ^51Cr-labeled target cells are combined at ratios of 100:1, 20:1 and 4:1 (effector: target). K562 cells are added at a ratio of 20:1 (K562) to reduce natural killer cell background lysis. Non-specific lysis is assessed using cells labeled with ^51Cr as described above, but not bearing the epitope cell line. Controls to measure spontaneous release and maximum release of ^51Cr are included in duplicate. After incubation at 37° C. for six hours, the plates are centrifuged and the supernatants counted to measure ^51Cr release. Percent specific lysis is calculated using the following equation: […]
The ability of these IgE peptides in eliciting CTL responses was evaluated in vitro. As previously described, Drosophila cells transfected with MHC class I plus B7-1 and ICAM-1 are potent antigen presenting cells (APC) in activation of resting naïve CD8 T cells in vitro. Resting naïve CD8 T cells were purified from mouse lymph nodes and cultured with peptide loaded Drosophila cells transfected with L^d or D^b plus B7-1 and ICAM-1 in the absence of cytokines. IL-2 (20units/ml) was added at Day 3 and every other day thereafter. The CTL activity towards peptides loaded RMAS (K^b, D^b) cells or RMAS-L^d cells were measured on Day 9.

D^b class I molecules = target: T1, D^b class I molecules (Mus musculus, UniProt P01899); test: MHC class I stabilization assay on TAP- RMAS cells (H-2^b), flow cytometry; type: binding; conditions: for Stabilization of MHC: D^b, ratio of fluorescence intensity (with peptide - without peptide)/without peptide; for Binding to / stabilization of D^b, in words: MHC class I stabilization assay, RMAS cells
T1 construct: Antigen-transporting deficient (TAP^−) RMAS cells (H-2^b); endogenous in cells; host or cells: RMA-S (TAP 2 deficient, H-2^b)
T1 sequence (P01899 25-362): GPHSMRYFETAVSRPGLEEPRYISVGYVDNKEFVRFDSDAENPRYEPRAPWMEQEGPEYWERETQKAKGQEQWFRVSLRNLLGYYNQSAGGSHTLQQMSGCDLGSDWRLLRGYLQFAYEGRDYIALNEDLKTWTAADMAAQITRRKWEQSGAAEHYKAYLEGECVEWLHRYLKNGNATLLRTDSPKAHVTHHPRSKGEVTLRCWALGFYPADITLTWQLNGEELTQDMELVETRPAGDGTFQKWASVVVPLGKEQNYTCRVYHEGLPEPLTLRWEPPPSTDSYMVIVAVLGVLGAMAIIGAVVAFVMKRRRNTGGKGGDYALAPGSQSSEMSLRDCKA
T1 sequence (P01887 21-119 partner): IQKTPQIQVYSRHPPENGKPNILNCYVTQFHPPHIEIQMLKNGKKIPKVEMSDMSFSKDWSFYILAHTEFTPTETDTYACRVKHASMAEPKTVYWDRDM
Experimental: (§2) TAP 2 deficient RMA.S cells (FIG. 11B) or L^d transfected RMA.S cells (FIG. 11A) were incubated with indicated concentration of peptides at 28° C. overnight and then incubated at 37° C. for two to four hours. The cells were harvested and stained with mAb specific for L^d (FIG. 11B) or for D^b (FIG. 11A) and analyzed with FACScan.
(§3) The binding capacity of these synthetic peptides to L^d and D^b class I molecules were tested in an MHC class I stabilization assay (Cai et al. (1996) supra). Antigen-transporting deficient (TAP^−) RMAS cells (H-2^b) or L^d transfected RMAS (RMAS-L^d) cells were cultured in the presence of a titrated concentration of peptides at 27° C. After overnight culturing at 27° C., these cells were further cultured for two hours at 37° C. and the surface expression of L^d or D^b on the cells were analyzed by flow cytometry. […] Of the five peptides predicted bind to D^b, only IgE44 binds Db strongly and two peptides, IgE16 and IgE125, bind D^b weakly. […] Thus, a total of six peptides were identified that bind to either L^d or D^b MHC class I molecules.

L^d class I molecules = target: T2, L^d class I molecules (Mus musculus, UniProt P01897); test: MHC class I stabilization assay on L^d transfected RMAS cells, flow cytometry; type: binding; conditions: for Stabilization of MHC: L^d, ratio of fluorescence intensity (with peptide - without peptide)/without peptide; for Binding to L^d, in words: MHC class I stabilization assay, RMAS-L^d cells
T2 construct: expressed in transfected cells; host or cells: RMA-S (RMAS-L^d), TAP-deficient
T2 sequence (P01897 25-362): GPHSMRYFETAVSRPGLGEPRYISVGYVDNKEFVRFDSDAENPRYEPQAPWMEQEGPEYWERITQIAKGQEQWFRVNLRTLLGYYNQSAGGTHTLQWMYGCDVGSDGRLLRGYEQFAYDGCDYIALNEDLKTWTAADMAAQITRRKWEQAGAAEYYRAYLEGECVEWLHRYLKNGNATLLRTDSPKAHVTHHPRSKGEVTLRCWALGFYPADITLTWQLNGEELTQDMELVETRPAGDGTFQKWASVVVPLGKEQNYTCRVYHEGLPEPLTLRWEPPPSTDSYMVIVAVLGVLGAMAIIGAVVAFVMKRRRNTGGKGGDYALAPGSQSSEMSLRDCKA
T2 sequence (P01887 21-119 partner): T1 sequence (P01887 21-119 partner)
Experimental: as §2, §3

[2] = system: peptides loaded RMAS-L^d cells; test: In vitro generation of IgE peptide specific CTLs, 51Cr release against peptide loaded RMAS-L^d cells; type: cell-based; conditions: naive mouse CD8 T cells, Drosophila APC with L^d, B7-1, ICAM-1; Day 9
Experimental: as §1
The ability of these IgE peptides in eliciting CTL responses was evaluated in vitro. […] The CTL activity towards peptides loaded RMAS (K^b, D^b) cells or RMAS-L^d cells were measured on Day 9.

[3] = system: T2 cells loaded with indicated peptides; test: CTL activity generated from PBMC of different donors with IgE peptides on transfected Drosophila cells, chromium release; type: cell-based, human; conditions: x: number of donor from whom anti-IgE CTL was generated; N: number of donor tested
Experimental: CD8 T cells were purified from individual donors and cultured with Drosophila cells transfected with HLA-A2, hB7-1, hB7-2, hICAM-1 and hLFA-3 molecules in the presence of indicated peptides. After being cultured for six days, low doses of hIL-2 was added to the culture and re-stimulated with peptides loaded autologous adherent cells for an additional seven days. The CTLs were then harvested and the specific killing activities were tested with ^51Cr labeled T2 cells that loaded with indicated peptides FIGS. 9A through 9D by a standard chromium release assay. [table]

## GHILNDVSV (Peptide antigen) [IgE 125]
[1]
  Specific CTL activity induced by the peptide, D^b restricted: No specific CTL activity
D^b class I molecules
  Stabilization of MHC: + (less than two-fold is scored as “+”)
  Binding to / stabilization of D^b, in words: weakly

## GSNQGFFIF (Peptide antigen) [IgE 366]
[1]
  Specific CTL activity induced by the peptide, D^b restricted: induce D^b restricted CTLs
D^b class I molecules
  Binding to / stabilization of D^b, in words: ^cIgE 366 also stabilizes D^b class I molecules.
D^b class I molecules; listed as IgE366
  Binding to / stabilization of D^b, in words: binds both L^d and D^b
L^d class I molecules
  Stabilization of MHC: ++^c (more than two fold is calculate as “++”)
  Binding to L^d, in words: strongly
[2]
  Specific CTL activity induced by the peptide, L^d restricted: inducing L^d restricted CTLs

## HSTIQLYCF (Peptide antigen) [IgE 114]
L^d class I molecules
  Stabilization of MHC: + (less than two-fold is scored as “+”)
  Binding to L^d, in words: weakly

## KPCKGTASM (Peptide antigen) [IgE 11]
L^d class I molecules
  Stabilization of MHC: ++ (more than two fold is calculate as “++”)
  Binding to L^d, in words: strongly
[2]
  Specific CTL activity induced by the peptide, L^d restricted: induces antigen specific CTLs

## MSTVNFPAL (Peptide antigen) [IgE 44]
[1]
  Specific CTL activity induced by the peptide, D^b restricted: specifically lysed
D^b class I molecules
  Stabilization of MHC: ++ (more than two fold is calculate as “++”)
  Binding to / stabilization of D^b, in words: strongly

## QMFTCRVAHT (Peptide antigen) [IgE 887]
[3]
  Specific Killing (x/N): 1/4

## QVMDVDLSTA (Peptide antigen) [IgE 898]
[3]
  Specific Killing (x/N): 3/4

## SLLTVSGAWA (Peptide antigen) [IgE 876]
[3]
  Specific Killing (x/N): 0/5

## SLNGTTMTL [IgE 47]
[3]
  Specific Killing (x/N): 7/8

## TASMTLGCL (Peptide antigen) [IgE 16]
[1]
  Specific CTL activity induced by the peptide, D^b restricted: No specific CTL activity
D^b class I molecules
  Stabilization of MHC: + (less than two-fold is scored as “+”)
  Binding to / stabilization of D^b, in words: weakly

## TLACLIQNFM (Peptide antigen) [IgE 895]
[3]
  Specific Killing (x/N): 3/4

## TLTVTSTLPV (Peptide antigen) [IgE 884]
[3]
  Specific Killing (x/N): 8/8

## WLEDGQVMDV (Peptide antigen) [IgE 883]
[3]
  Specific Killing (x/N): 1/5

## WLSDRTYTC (Peptide antigen) [IgE 185]
[3]
  Specific Killing (x/N): 0/8

## WVDNKTFSV [IgE 96]
[3]
  Specific Killing (x/N): 3/8

## YATISLLTV (Peptide antigen) [IgE 890]
[3]
  Specific Killing (x/N): 4/5
